Laboratory results as given in ChEMBL document CHEMBL4354854, “DNA-Encoded Library Technology-Based Discovery, Lead Optimization, and Prodrug Strategy toward Structurally Unique Indoleamine 2,3-Dioxygenase-1 (IDO1) Inhibitors” (J Med Chem, 2020).
≈ marks a conversion by molar mass, not a printed value. Blank lines part the entries; values can stand above or below the compound they belong to. Calls of active or inactive are those of the source. The rule behind the calls is not given here.

How the values were obtained:
[1] = Cytotoxicity against human PBMC cells assessed as reduction in cell viability measured after 48 hrs by Celltiter-glo luminescence assay; assay type: cell-based
[2] = biological target: T1, Indoleamine 2,3-dioxygenase 1 (Homo sapiens, UniProt P14902); assay: Binding affinity to IDO1 holoenzyme (unknown origin) assessed as red shift in soret band at 10 uM measured after 2 hrs by UV-vis spectra analysis
Target sequence in this assay (P14902 whole entry, looked up): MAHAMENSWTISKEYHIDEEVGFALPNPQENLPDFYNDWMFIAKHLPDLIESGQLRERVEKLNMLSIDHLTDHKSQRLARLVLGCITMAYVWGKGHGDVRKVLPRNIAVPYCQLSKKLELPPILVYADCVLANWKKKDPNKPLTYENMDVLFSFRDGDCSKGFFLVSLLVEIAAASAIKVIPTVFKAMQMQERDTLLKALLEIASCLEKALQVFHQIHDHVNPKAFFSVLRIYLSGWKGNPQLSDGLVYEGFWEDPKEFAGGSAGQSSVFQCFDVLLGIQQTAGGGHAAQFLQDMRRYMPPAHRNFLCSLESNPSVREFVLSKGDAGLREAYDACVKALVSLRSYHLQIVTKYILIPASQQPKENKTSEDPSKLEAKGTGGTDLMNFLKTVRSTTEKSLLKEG

[3] = biological target: T1, Indoleamine 2,3-dioxygenase 1
Target sequence in this assay (P14902 whole entry): as the sequence (P14902 whole entry, looked up) above
Description: Inhibition of IDO1 in IFN-gamma/LPS stimulated human PBMC assessed as reduction in kynurenine production after 48 hrs by RapidFire MS assay

[4] = Oral bioavailability in CD-1 mouse assessed as (S)-Ethyl 6-Bromo-4-(1H-indazole-7-carboxamido)spiro-[chroman-2,4'-piperidine]-1'-carboxylate level at 89 mg/kg equiv of parent compound administered via gavage using crystalline compound by LC-MS/MS analysis; assay type: ADME, organism-based; settings: in vivo
[5] = Oral bioavailability in CD-1 mouse assessed as (S)-Ethyl 6-Bromo-4-(1H-indazole-7-carboxamido)spiro-[chroman-2,4'-piperidine]-1'-carboxylate level at 267 mg/kg equiv of parent compound administered via gavage using crystalline compound by LC-MS/MS analysis; assay type: ADME, organism-based; settings: in vivo
Homo sapiens = assay: In vivo inhibition of IDO1 in human at 60 mg, po bid measured after 24 hrs relative to control; assay type: functional
[6] = Oral bioavailability in Beagle dog assessed as (S)-Ethyl 6-Bromo-4-(1H-indazole-7-carboxamido)spiro-[chroman-2,4'-piperidine]-1'-carboxylate level at 89 mg/kg equiv of parent compound administered via gavage using crystalline compound by LC-MS/MS analysis; assay type: ADME, organism-based, Canis lupus familiaris; settings: in vivo
[7] = Mutagenicity in Salmonella typhimurium in absence of S9 fraction by Ames test; assay type: toxicity; settings: salmonella enterica subsp. enterica serovar typhimurium
[8] = Oral bioavailability in Beagle dog assessed as (S)-Ethyl 6-Bromo-4-(1H-indazole-7-carboxamido)spiro-[chroman-2,4'-piperidine]-1'-carboxylate level at 3 mg/kg equiv of parent compound administered via gavage using crystalline compound by LC-MS/MS analysis; assay type: ADME, organism-based, Canis lupus familiaris; settings: in vivo
[9] = Oral bioavailability in Beagle dog assessed as (S)-Ethyl 6-Bromo-4-(1H-indazole-7-carboxamido)spiro-[chroman-2,4'-piperidine]-1'-carboxylate level at 30 mg/kg equiv of parent compound administered via gavage using crystalline compound by LC-MS/MS analysis; assay type: ADME, organism-based, Canis lupus familiaris; settings: in vivo
[10] = Mutagenicity in Salmonella typhimurium in presence of S9 fraction by Ames test; settings: salmonella enterica subsp. enterica serovar typhimurium
[11] = Oral bioavailability in CD-1 mouse assessed as (S)-Ethyl 6-Bromo-4-(1H-indazole-7-carboxamido)spiro-[chroman-2,4'-piperidine]-1'-carboxylate level at 3 mg/kg equiv of parent compound administered via gavage using crystalline compound by LC-MS/MS analysis; assay type: ADME, organism-based; settings: in vivo
[12] = Oral bioavailability in CD-1 mouse assessed as (S)-Ethyl 6-Bromo-4-(1H-indazole-7-carboxamido)spiro-[chroman-2,4'-piperidine]-1'-carboxylate level at 30 mg/kg equiv of parent compound administered via gavage using crystalline compound by LC-MS/MS analysis; assay type: ADME, organism-based; settings: in vivo
[13] = AUC (0 to t) in Beagle dog assessed as (S)-Ethyl 6-Bromo-4-(1H-indazole-7-carboxamido)spiro-[chroman-2,4'-piperidine]-1'-carboxylate level at 30 mg/kg equiv of parent compound administered via oral gavage using crystalline compound by LC-MS/MS analysis; assay type: ADME, organism-based, Canis lupus familiaris; settings: in vivo
[14] = Solubility of the compound in fasted state simulated intestinal fluid using crystalline compound; assay type: physicochemical
[15] = Solubility of the compound in fasted state simulated intestinal fluid using amorphous compound; assay type: physicochemical
[16] = Oral bioavailability in Han Wistar rat assessed as (S)-Ethyl 6-Bromo-4-(1H-indazole-7-carboxamido)spiro-[chroman-2,4'-piperidine]-1'-carboxylate level at 82 mg/kg equiv of parent compound administered via gavage using amorphous compound by LC-MS/MS analysis; assay type: ADME, organism-based; settings: in vivo
[17] = Oral bioavailability in Han Wistar rat assessed as (S)-Ethyl 6-Bromo-4-(1H-indazole-7-carboxamido)spiro-[chroman-2,4'-piperidine]-1'-carboxylate level at 4 mg/kg equiv of parent compound administered via gavage using amorphous compound by LC-MS/MS analysis; assay type: ADME, organism-based; settings: in vivo
[18] = Oral bioavailability in Han Wistar rat assessed as (S)-Ethyl 6-Bromo-4-(1H-indazole-7-carboxamido)spiro-[chroman-2,4'-piperidine]-1'-carboxylate level at 25 mg/kg equiv of parent compound administered via gavage using amorphous compound by LC-MS/MS analysis; assay type: ADME, organism-based; settings: in vivo
[19] = Clearance in mouse; assay type: ADME, organism-based; settings: in vivo
[20] = Oral bioavailability in Han Wistar rat at 100 mg/kg administered via gavage using crystalline compound by LC-MS/MS analysis; assay type: ADME, organism-based; settings: in vivo
[21] = Clearance in rat relative to hepatic blood flow; assay type: ADME; settings: in vivo
[22] = Clearance in monkey relative to hepatic blood flow; assay type: ADME, Macaca mulatta; settings: rhesus monkey, in vivo
[23] = Oral bioavailability in Beagle dog at 30 mg/kg administered via gavage using crystalline compound by LC-MS/MS analysis; assay type: ADME, organism-based, Canis lupus familiaris; settings: in vivo
[24] = Clearance in mouse relative to hepatic blood flow; assay type: ADME; settings: in vivo
[25] = Clearance in monkey; assay type: ADME, Macaca mulatta; settings: rhesus monkey, in vivo
[26] = AUC (0 to t) in Beagle dog at 30 mg/kg, po administered via gavage using crystalline compound by LC-MS/MS analysis; assay type: ADME, organism-based, Canis lupus familiaris; settings: in vivo
[27] = Clearance in rat; assay type: ADME; settings: in vivo
[28] = Oral bioavailability in Han Wistar rat at 30 mg/kg administered via gavage using crystalline compound by LC-MS/MS analysis; assay type: ADME, organism-based; settings: in vivo
[29] = Oral bioavailability in Beagle dog at 5 mg/kg administered via gavage using crystalline compound by LC-MS/MS analysis; assay type: ADME, organism-based, Canis lupus familiaris; settings: in vivo
[30] = Oral bioavailability in Han Wistar rat at 5 mg/kg administered via gavage using crystalline compound by LC-MS/MS analysis; assay type: ADME, organism-based; settings: in vivo

Compound: CCCOC(=O)N1CCC2(CC1)C[C@H](NC(=O)c1cccc3cn[nH]c13)c1cc(Br)ccc1O2
- CC50 at 48 h [1]: > 10 µM

Compound: CCOC(=O)N1CCC2(CC1)C[C@H](NC(=O)c1cccc3cn[nH]c13)c1cc(C#N)ccc1O2
- CC50 at 48 h [1]: > 10 µM

Compound: CCOC(=O)N1CCC2(CC1)C[C@H](NC(=O)c1cccc3c1OCO3)c1cc(Br)ccc1O2
- CC50 at 48 h [1]: > 10 µM

- Activity [2]: inactive
Compound: NS(=O)(=O)NCCNc1nonc1/C(=N/O)Nc1ccc(F)c(Br)c1

Compound: CCOC(=O)N1CCC2(CC1)C[C@H](NC(=O)c1cccc3ocnc13)c1cc(Br)ccc1O2
- CC50 at 48 h [1]: > 10 µM

Compound: CCOC(=O)N1CCC2(CC1)CC(NC(=O)c1cccc3cn[nH]c13)c1ccccc1O2 (racemic)
- CC50 at 48 h [1]: > 10 µM

- IC50 [3]: 0.0043 µM
Compound: COC(=O)N1CCC2(CC1)C[C@H](NC(=O)c1cccc3cn[nH]c13)c1cc(Br)ccc1O2
- CC50 at 48 h [1]: 6.31 µM

Compound: CCOC(=O)N1CCC2(CC1)C[C@H](NC(=O)c1cccc3cn[nH]c13)c1ccccc1O2
- CC50 at 48 h [1]: > 10 µM

Compound: CCOC(=O)N1CCC2(CC1)C[C@H](NC(=O)c1ccccc1OC)c1cc(Br)ccc1O2
- CC50 at 48 h [1]: > 10 µM

Compound: CCOC(=O)N1CCC2(CC1)C[C@H](NC(=O)c1ccccc1NC(=O)C(F)(F)F)c1cc(Br)ccc1O2
- CC50 at 48 h [1]: > 10 µM

Compound: CCOC(=O)N1CCC2(CC1)C[C@H](NC(=O)c1cccc3[nH]ncc13)c1cc(Br)ccc1O2
- CC50 at 48 h [1]: > 10 µM

Compound: CCOC(=O)N1CCC2(CC1)C[C@H](NC(=O)c1cccc3cn[nH]c13)c1cc(CC)ccc1O2
- CC50 at 48 h [1]: > 10 µM

Compound: CCOC(=O)N1CCC2(CC1)CC(NC(=O)c1cccc3cc[nH]c13)c1ccccc1O2 (racemic)
- CC50 at 48 h [1]: > 10 µM

Compound: CCOC(=O)N1CCC2(CC1)C[C@H](NC(=O)c1cccc3c1NC(=O)C3=O)c1cc(Br)ccc1O2
- CC50 at 48 h [1]: > 10 µM

Compound: CCOC(=O)N1CCC2(CC1)C[C@H](NC(=O)c1cccc3[nH]c(=O)[nH]c13)c1cc(Br)ccc1O2
- CC50 at 48 h [1]: > 10 µM

Compound: CC(C)(C)OC(=O)N1CCC2(CC1)C[C@H](NC(=O)c1cccc3cn[nH]c13)c1cc(Br)ccc1O2
- CC50 at 48 h [1]: > 10 µM

- Activity [2]: inactive
Compound: CC(C)CN(CC(C)C)c1ccc([C@H](C)CC(=O)O)cc1Nc1nc(C(F)(F)F)ns1

Compound: CC(C)OC(=O)N1CCC2(CC1)C[C@H](NC(=O)c1cccc3cn[nH]c13)c1cc(Br)ccc1O2
- CC50 at 48 h [1]: > 10 µM

Compound: CCOC(=O)N1CCC2(CC1)C[C@H](NC(=O)c1cccc3cc[nH]c13)c1cc(Br)ccc1O2
- CC50 at 48 h [1]: > 10 µM

Compound: CCOC(=O)N1CCC2(CC1)C[C@H](NC(=O)c1cccc3nn[nH]c13)c1cc(Br)ccc1O2
- CC50 at 48 h [1]: > 10 µM

- F [4]: 31%
- F [5]: 45%
- F [6]: 21%
- F [8]: 37%
- F [9]: 32%
- F [11]: 33%
- F [12]: 24%
- AUCt [13]: 8606 ng·h/mL
- solubility thermodynamic [14]: > 1000 µg/mL
Compound: CCOC(=O)N1CCC2(CC1)C[C@H](NC(=O)c1cccc3cn(COP(=O)(O)O)nc13)c1cc(Br)ccc1O2.NC(CO)(CO)CO.NC(CO)(CO)CO
- inhibition (INH) (Homo sapiens): 90%
- Activity [7]: Non-Toxic
- Activity [10]: Non-Toxic

Compound: CCOC(=O)N1CCC2(CC1)C[C@H](NC(=O)c1cccc3c1NC(=O)C3)c1cc(Br)ccc1O2
- CC50 at 48 h [1]: > 10 µM

- solubility [15]: > 1000 µg/mL
- F [16]: 91%
- F [17]: 65%
- F [18]: 95%
Compound: CCOC(=O)N1CCC2(CC1)C[C@H](NC(=O)c1cccc3cn(COP(=O)(O)O)nc13)c1cc(Br)ccc1O2

- IC50 [3]: 0.021 µM
Compound: CCOC(=O)N1CCC2(CC1)C[C@H](NC(=O)c1cccc3cn[nH]c13)c1cc(Br)ncc1O2
- CC50 at 48 h [1]: > 10 µM

- clearance [19]: 55 mL/min/kg
Compound: CC(C)(C)OC(=O)N1CCC2(CC1)CC(NC(=O)c1cccc3cc[nH]c13)c1ccccc1O2 (racemic)
- CC50 at 48 h [1]: 5.01 µM

Compound: CCOC(=O)N1CCC2(CC1)C[C@H](NC(=O)c1cccc3c1NC(=O)CO3)c1cc(Br)ccc1O2
- CC50 at 48 h [1]: > 10 µM

- bioavailability [20]: 3%
- CL [21]: 15%
- CL [22]: 14%
- bioavailability [23]: 0.2%
- clearance [19]: 10 mL/min/kg
- CL [24]: 8%
- clearance [25]: 6.1 mL/min/kg
- AUC(0-t) [26]: 44.7 ng·h/mL
- clearance [27]: 11.7 mL/min/kg
- bioavailability [28]: 6%
- bioavailability [29]: 7%
- solubility thermodynamic [14]: 18.4 µg/mL (≈ 35.8 µM)
- bioavailability [30]: 11%
Compound: CCOC(=O)N1CCC2(CC1)C[C@H](NC(=O)c1cccc3cn[nH]c13)c1cc(Br)ccc1O2
- CC50 at 48 h [1]: > 10 µM

- IC50 [3]: 0.0064 µM
Compound: CCOC(=O)N1CCC2(CC1)C[C@H](NC(=O)c1cccc3cn[nH]c13)c1nc(OC)ccc1O2
- CC50 at 48 h [1]: > 10 µM

Compound: CCOC(=O)N1CCC2(CC1)C[C@@H](NC(=O)c1cccc3cn[nH]c13)c1ccccc1O2
- CC50 at 48 h [1]: > 10 µM

Compound: CCOC(=O)N1CCC2(CC1)C[C@H](NC(=O)c1cccc3cn[nH]c13)c1cc(OC)ccc1O2
- CC50 at 48 h [1]: > 10 µM

Compound: CCOC(=O)N1CCC2(CC1)C[C@H](NC(=O)c1cccc3nc[nH]c13)c1cc(Br)ccc1O2
- CC50 at 48 h [1]: > 10 µM

Compound: CCOC(=O)N1CCC2(CC1)C[C@H](NC(=O)c1cccc3cn[nH]c13)c1cc(C(=O)O)ccc1O2
- CC50 at 48 h [1]: > 10 µM

Compound: CCOC(=O)N1CCC2(CC1)C[C@H](NC(=O)c1ccccc1O)c1cc(Br)ccc1O2
- CC50 at 48 h [1]: > 10 µM

Compound: CCOC(=O)N1CCC2(CC1)C[C@H](NC(=O)c1cccc3cn[nH]c13)c1cc(C(=O)OC)ccc1O2
- CC50 at 48 h [1]: > 10 µM
